Earlier results in patent US6897306B2, “3-heterocyclylpropanohydroxamic acids” (Pfizer Products, Inc., priority 1999, dated 2005).
Like-named read-outs stand apart in the source and are kept apart here. Where a SMILES comes first, the peptide text is derived from it. [ ]: non-standard residue; d: D form. The star is where a group is joined. Sta = CC(C)C[C@H](N)[C@@H](O)CC(=O)O; Isovaleryl = CC(C)CC(=O)*

B1: ovostatin: protein reported to at least partially inhibit PCP activity (protein, UniProt P20740 37-1473, looked up)
Ovostatin: KEPEPQYVLMVPAVLQSDSPSQVCLQFFNLNQTISVRVVLEYDTINTTIFEKNTTTSNGLQCLNFMIPPVTSVSLAFISFTAKGTTFDLKERRSVMIWNMESFVFVQTDKPIYKPGQSVMFRVVALDFNFKPVQEMYPLIAVQDPQNNRIFQWQNVTSEINIVQIEFPLTEEPILGNYKIIVTKKSGERTSHSFLVEEYVLPKFDVTVTAPGSLTVMDSELTVKICAVYTYGQPVEGKVQLSVCRDFDSYGRCKKSPVCQSFTKDLDTDGCLSHILSSKVFELNRIGYKRNLDVKAIVTEKEQVCNLTATQSISITQVMSSLQFENVDHHYRRGIPYFGQIKLVDKDNSPISNKVIQLFVNNKNTHNFTTDINGIAPFSIDTSKIFDPELSLKALYKTSDQCHSEGWIEPSYPDASLSVQRLYSWTSSFVRIEPLWKDMSCGQKRMITVYYILNTEGYEHINIVNFYYVGMAKGKIVLTGEIKVNIQADQNGTFMIPLVVNEKMAPALRLLVYMLHPAKELVADSVRFSIEKCFKNKVQLQFSEKQMLTTSNVSLVIEAAANSFCAVRAVDKSMLLLKSETELSAETIYNLHPIQDLQGYIFNGLNLEDDPQDPCVSSDDIFHKGLYYRPLTSGLGPDVYQFLRDMGMKFFTNSKIRQPTVCTRETVRPPSYFLNAGFTASTHHVKLSAEVAREERGKRHILETIREFFPETWIWDIILINSTGKASVSYTIPDTITEWKASAFCVEELAGFGMSVPATLTAFQPFFVDLTLPYSIIHGEDFLVRANVFNYLNHCIKINVLLLESLDYQAKLISPEDDGCVCAKIRKSYVWNIFPKGTGDVLFSITAETNDDEACEEEALRNIRIDYRDTQIRALLVEPEGIRREETQNFLICMKDDVISQDVAIDLPTNVVEGSPRPSFSVVGDIMGTAIQNVHQLLQMPFGNGEQNMVLFAPNIYVLDYLDKTRQLSEDVKSKTIGYLVSGYQKQLSYKHPDGSYSTFGIRDKEGNTWLTAFVYKSFAEASRFIYIDDNVQAQTLIWLATKQKTDGCFQSTGILVNNAMKGGVENELSLSAYITIALLEAGHSMSHTVIRNAFYCLETASEKNITDIYTQALVAYAFCLAGKAEICESFLRELQKSAKEVDGSKYWEQNQRSAPEKSHLLDHVQSTDVEITSYVLLALLYKPNRSQEDLTKASAIVQWIIRQQNSYGGFASMQDTVVALQALAAYGAATYNSVTQNVIKINSKNTFEKVFTVNNENRLLLQQTPLPQVPGKYSLTVNGTGCVLIQTALRYNIHLPEGAFGFSLSVQTSNASCPRDQPGKFDIVLISSYTGKRSSSNMVIIDVKMLSGFVPVKSSLDQLIDDHTVMQVEYKKNHVLLYLGNILQKRRKEVTFSVEQDFVVTHPKPAPVQIYDYYETEEYAVAEYMSLCRGVVEEMG
B2: α2-Macroglobuline: protein reported to at least partially inhibit PCP activity (protein, UniProt P01023 24-1474, looked up)
Alpha-2-macroglobulin: SVSGKPQYMVLVPSLLHTETTEKGCVLLSYLNETVTVSASLESVRGNRSLFTDLEAENDVLHCVAFAVPKSSSNEEVMFLTVQVKGPTQEFKKRTTVMVKNEDSLVFVQTDKSIYKPGQTVKFRVVSMDENFHPLNELIPLVYIQDPKGNRIAQWQSFQLEGGLKQFSFPLSSEPFQGSYKVVVQKKSGGRTEHPFTVEEFVLPKFEVQVTVPKIITILEEEMNVSVCGLYTYGKPVPGHVTVSICRKYSDASDCHGEDSQAFCEKFSGQLNSHGCFYQQVKTKVFQLKRKEYEMKLHTEAQIQEEGTVVELTGRQSSEITRTITKLSFVKVDSHFRQGIPFFGQVRLVDGKGVPIPNKVIFIRGNEANYYSNATTDEHGLVQFSINTTNVMGTSLTVRVNYKDRSPCYGYQWVSEEHEEAHHTAYLVFSPSKSFVHLEPMSHELPCGHTQTVQAHYILNGGTLLGLKKLSFYYLIMAKGGIVRTGTHGLLVKQEDMKGHFSISIPVKSDIAPVARLLIYAVLPTGDVIGDSAKYDVENCLANKVDLSFSPSQSLPASHAHLRVTAAPQSVCALRAVDQSVLLMKPDAELSASSVYNLLPEKDLTGFPGPLNDQDNEDCINRHNVYINGITYTPVSSTNEKDMYSFLEDMGLKAFTNSKIRKPKMCPQLQQYEMHGPEGLRVGFYESDVMGRGHARLVHVEEPHTETVRKYFPETWIWDLVVVNSAGVAEVGVTVPDTITEWKAGAFCLSEDAGLGISSTASLRAFQPFFVELTMPYSVIRGEAFTLKATVLNYLPKCIRVSVQLEASPAFLAVPVEKEQAPHCICANGRQTVSWAVTPKSLGNVNFTVSAEALESQELCGTEVPSVPEHGRKDTVIKPLLVEPEGLEKETTFNSLLCPSGGEVSEELSLKLPPNVVEESARASVSVLGDILGSAMQNTQNLLQMPYGCGEQNMVLFAPNIYVLDYLNETQQLTPEIKSKAIGYLNTGYQRQLNYKHYDGSYSTFGERYGRNQGNTWLTAFVLKTFAQARAYIFIDEAHITQALIWLSQRQKDNGCFRSSGSLLNNAIKGGVEDEVTLSAYITIALLEIPLTVTHPVVRNALFCLESAWKTAQEGDHGSHVYTKALLAYAFALAGNQDKRKEVLKSLNEEAVKKDNSVHWERPQKPKAPVGHFYEPQAPSAEVEMTSYVLLAYLTAQPAPTSEDLTSATNIVKWITKQQNAQGGFSSTQDTVVALHALSKYGAATFTRTGKAAQVTIQSSGTFSSKFQVDNNNRLLLQQVSLPELPGEYSMKVTGEGCVYLQTSLKYNILPEKEEFPFALGVQTLPQTCDEPKAHTSFQISLSVSYTGSRSASNMAIVDVKMVSGFIPLKPTVKMLERSNHVSRTEVSSNHVLIYLDKVSNQTLSLFFTVLQDVPVRDLKPAIVKVYDYYETDEFAIAEYNAPCSKDLGNA

System: PCP
Conditions: cited from earlier work

| Molecule | PCP inhibition (in words) (literature reports) | PCP inhibition (in words) (buffer concentration 0.2-0.5M) |
| --- | --- | --- |
| O[C@H](CS)[C@H](O)CS (racemic) [Dithiothreitol] | inhibitory at low concentrations | – |
| [Cd+2] [Cd^2+] | inhibitory at low concentrations | – |
| [Cu+2] [Cu^2+] | inhibitory at low concentrations | – |
| CCCCCCCCCCCCOS(=O)(=O)[O-].[Na+] [SDS] | inhibitory at low concentrations | – |
| [Zn+2] [Zn^2+] | inhibitory at low concentrations | – |
| N=C(N)NCCC[C@H](N)C(=O)O [arginine] | inhibited | – |
| CC(C)C[C@H](NC(=O)[C@@H](NC(=O)N[C@@H](Cc1ccccc1)C(=O)O)[C@@H]1CCN=C(N)N1)C(=O)N[C@H](C=O)Cc1ccccc1 [chymostatin] | relatively strong inhibitors | – |
| NCCCC[C@H](N)C(=O)O [lysine] | inhibited | – |
| CC(C)CC(=O)N[C@H](C(=O)N[C@H](C(=O)N[C@@H](CC(C)C)[C@@H](O)CC(=O)N[C@@H](C)C(=O)N[C@@H](CC(C)C)[C@@H](O)CC(=O)O)C(C)C)C(C)C [pepstatin A] (Isovaleryl-VV[Sta]A[Sta]-OH) | relatively strong inhibitors | – |
| Tris-HCl [Tris-HCl buffer] | – | markedly inhibited activity |
| concanavalin A | inhibitory at low concentrations | – |
| B1 | at least partially inhibit | – |
| B2 | at least partially inhibit | – |
